# Results as given in patent US12139508B2, “Steroid derivative regulators, method for preparing the same, and uses thereof” (JIANGSU HANSOH PHARMACEUTICAL GROUP CO., LTD., priority 2018, dated 2024).
# Molecular target: GABA-A receptor
# Assay: 35S-TBPS binding assay (GABAA receptor binding ability test)
# Parameters: species or system Sprague-Dawley rat
# Conditions: rat cerebral cortex cell membrane, 5 μM GABA, 2 nM 35S-TBPS; read-out: 35S-TBPS bindng test: IC50 on inhibiting the TBPS binding activity
# Description: 1.2 Experimental Procedures 1.2.1 Extraction of Cerebral Cortex Cell Membrane:
# 1. The cerebral cortex of male Sprague-Dawley rat was isolated.
# 2. A pre-chilled 0.32 M sucrose solution (one tablet of protease inhibitor was added per 100 ml) was added to the cerebral cortex (the volume of sucrose solution was 10 times the volume of the cerebral cortex). The mixture was crushed with a 50 mL glass tissue homogenizer in batches and mixed well.
# 3. The mixture was centrifuged at 1500 g, 4° C. for 10 minutes, and the supernatant was collected.
# 4. The mixture was centrifuged at 20000 g, 4° C. for 30 minutes, and the supernatant was discarded.
# 5. The precipitate was resuspended with the pre-chilled phosphate buffer saline (PBS) (one tablet of protease inhibitor was added per 100 ml). An average of 4 ml of PBS was added per rat, and the mixture was mixed well by a glass tissue homogenizer.
# 6. The mixture was centrifuged at 10000 g, 4° C. for 10 minutes, and the supernatant was discarded.
# 7. Steps 5 and 6 were repeated three times.
# 8. Finally, the precipitate was resuspended with 4 volumes of PBS. The resulting solution was dispensed, frozen in liquid nitrogen, and stored at −80° C.
# 9. The protein concentration was measured by the bicinchoninic acid (BCA) method.
# 1.2.2 ^35S-TBPS Binding Assay
# 1. 230 μL of PBS was added to each well of a well plate with 1.1 ml volume.
# 2. 60 μL of the cerebral cortex cell membrane (5 μg/μL) solution was added to each well, and the mixture was mixed well.
# 3. The test compound (3 μL per well) was added, and the plate was incubated at 25° C. for 5 minutes. The DMSO concentration was 1%. The initial compound concentration was 1 μM, and a 3-fold dilution in gradient was carried out to obtain a total of 8 gradients and 2 replicates. 1% DMSO was used as a negative control, and 10 μM P026-2 was used as a positive control.
# 4. GABA was added at a final concentration of 5 μM, and incubated at 25° C. for 5 minutes. 1 mM GABA solution was formulated, and 1.5 μL of the solution was added to each well.
# 5. ^35S-TBPS was added at a final concentration of 2 nM. The concentration of isotope mother solution was 9.7 μM. After dilution with PBS for 100 times, 6 μL of the diluted isotope solution was added to each well.
# 6. The plate was incubated at 4° C. for 20 hours.
# 7. The FilterMate GF/C plate was pre-treated with 0.5% PEI, and incubated at 4° C. for 1 hour.
# 8. The FilterMate GF/C plate was washed with Universal Harvester twice, 50 ml PBS each time.
# 9. The reaction solution was transferred to the GF/C plate, and each well was washed 4 times with 900 μL of PBS.
# 10. The washed GF/C plate was placed at 55° C. and dried for 10 minutes.
# 11. 40 μL of scintillation solution was added to each well, and the CPM value was read with TopCount.
# 1.2.3 Experimental Data Processing Method:
# In the experiment, the CPM (counts per minute) value was read with TopCount. According to the readings of the High control (DMSO) and the Low control ([…] of the positive compound) experimental groups, the […] inhibition was calculated based on the following formula: % Inhibition=100×(CPMHigh control−CPMSample)/(CPMHigh control−CPMLow control)
# The IC50 of the compound was calculated according to the following 4-parameter nonlinear logic formula: Y=Bottom+(Top−Bottom)/(1+10^((Log IC50−X)*Hill Slope)),
# wherein: • X represents the log of compound concentration, • Y represents the 0 Inhibition.
# The effect of the compound of the present invention on the TBPS binding activity was determined by the above test, and the measured IC50 values are shown in Table 1.
row,Compound,IC50 [nM]
1,"C[C@@]1(O)CC[C@H]2[C@H](CC[C@@H]3[C@@H]2CC[C@@]2(C)[C@H]3[C@@H]3C[C@@H]3[C@@H]2C(=O)Cn2ccnc2)C1 [Example 98, 1-((2R,4aS,4bR,6aS,7S,7aS,8aR,8bR,8cR,10aR)-2-Hydroxy-2,6a-dimethyloctadecahydrocyclopropa[4,5]cyclopenta[1,2-a]phenanthren-7-yl)-2-(1H-imidazol-1-yl)ethan-1-one]",37.8
2,"Cc1nnnn1CC(=O)[C@H]1[C@H]2C[C@H]2[C@H]2[C@@H]3CC[C@@H]4C[C@](C)(O)CC[C@@H]4[C@H]3CC[C@@]21C [Example 101, 1-((2R,4aS,4bR,6aS,7S,7aS,8aR,8bR,8cR,10aR)-2-Hydroxy-2,6a-dimethyloctadecahydrocyclopropa[4,5]cyclopenta[1,2-a]phenanthren-7-yl)-2-(5-methyl-1H-tetrazol-1-yl)ethan-1-one]",11.4
3,"C[C@@]1(O)CC[C@H]2[C@H](CC[C@@H]3[C@@H]2CC[C@@]2(C)[C@H]3[C@@H]3C[C@@H]3[C@@H]2C(=O)Cn2cc(C(=O)N3CCC3)cn2)C1 [Example 102, 2-(4-(Azetidine-1-carbonyl)-1H-pyrazol-1-yl)-1-((2R,4aS,4bR,6aS,7S,7aS,8aR,8bR,8c R,10aR)-2-hydroxy-2,6a-dimethyloctadecahydrocyclopropa[4,5]cyclopenta[1,2-a]phenanthren-7-yl)ethan-1-one]",65
4,"CSc1cnn(CC(=O)[C@H]2[C@H]3C[C@H]3[C@H]3[C@@H]4CC[C@@H]5C[C@](C)(O)CC[C@@H]5[C@H]4CC[C@@]32C)c1 [Example 122, 1-((2R,4aS,4bR,6aS,7S,7aS,8aR,8bR,8cR,10aR)-2-Hydroxy-2,6a-dimethyloctadecahydrocyclopropa[4,5]cyclopenta[1,2-a]phenanthren-7-yl)-2-(4-(methylthio)-1H-pyrazol-1-yl)ethan-1-one]",46
5,"C[C@@]1(O)CC[C@H]2[C@H](CC[C@@H]3[C@@H]2CC[C@@]2(C)[C@H]3[C@@H]3C[C@@H]3[C@@H]2C(=O)COc2ccc(C#N)cc2F)C1 [Example 125, 3-Fluoro-4-(2-((2R,4aS,4bR,6aS,7S,7aS,8aR,8bR,8cR,10aR)-2-hydroxy-2,6a-dimethyloctadecahydrocyclopropa[4,5]cyclopenta[1,2-a]phenanthren-7-yl)-2-oxoethoxy)benzonitrile]",30.7
6,"C[C@@]1(O)CC[C@H]2[C@H](CC[C@@H]3[C@@H]2CC[C@@]2(C)[C@H]3[C@@H]3C[C@@H]3[C@@H]2C(=O)COc2ccc(F)cc2C#N)C1 [Example 126, 5-Fluoro-2-(2-((2R,4aS,4bR,6aS,7S,7aS,8aR,8bR,8cR,10aR)-2-hydroxy-2,6a-dimethyloctadecahydrocyclopropa[4,5]cyclopenta[1,2-a]phenanthren-7-yl)-2-oxoethoxy)benzonitrile]",4.9
7,"C[C@@]1(O)CC[C@H]2[C@H](CC[C@@H]3[C@@H]2CC[C@@]2(C)[C@H]3[C@@H]3C[C@@H]3[C@@H]2C(=O)Cn2nc(C#N)cc2C#N)C1 [Example 127, 1-(2-((2R,4aS,4bR,6aS,7S,7aS,8aR,8bR,8cR,10aR)-2-Hydroxy-2,6a-dimethyloctadecahydrocyclopropa[4,5]cyclopenta[1,2-a]phenanthren-7-yl)-2-oxoethyl)-1H-pyrazole-3,5-dicarbonitrile]",6.1
8,"C[C@@]1(O)CC[C@H]2[C@H](CC[C@@H]3[C@@H]2CC[C@@]2(C)[C@H]3[C@@H]3C[C@@H]3[C@@H]2C(=O)Cn2cc(-c3ncco3)cn2)C1 [Example 128, 1-((2R,4aS,4bR,6aS,7S,7aS,8aR,8bR,8cR,10aR)-2-Hydroxy-2,6a-dimethyloctadecahydrocyclopropa[4,5]cyclopenta[1,2-a]phenanthren-7-yl)-2-(4-(oxazol-2-yl)-1H-pyrazol-1-yl)ethan-1-one]",15.8
9,"C[C@@H]1C[C@H](C(=O)Cn2ccc(C(F)(F)F)n2)[C@@]2(C)CC[C@H]3[C@@H](CC[C@@H]4C[C@](C)(O)CC[C@@H]43)[C@H]12 [Example 131, 1-((3R,5R,8R,9R,10S,13S,14S,15R,17S)-3-Hydroxy-3,13,15-trimethylhexadecahydro-1H-cyclopenta[a]phenanthren-17-yl)-2-(3-(trifluoromethyl)-1H-pyrazol-1-yl)ethan-1-one]",8
10,"C[C@@H]1C[C@H](C(=O)Cn2ccnn2)[C@@]2(C)CC[C@H]3[C@@H](CC[C@@H]4C[C@](C)(O)CC[C@@H]43)[C@H]12 [Example 132, 1-((3R,5R,8R,9R,10S,13S,14S,15R,17S)-3-Hydroxy-3,13,15-trimethylhexadecahydro-1H-cyclopenta[a]phenanthren-17-yl)-2-(1H-1,2,3-triazol-1-yl)ethan-1-one]",24.6
11,"C[C@@H]1C[C@H](C(=O)Cn2cc(C(=O)N3CCC3)cn2)[C@@]2(C)CC[C@H]3[C@@H](CC[C@@H]4C[C@](C)(O)CC[C@@H]43)[C@H]12 [Example 133, 2-(4-(Azetidine-1-carbonyl)-1H-pyrazol-1-yl)-1-((3R,5R,8R,9R,10S,13S,14S,15R,17S)-3-hydroxy-3,13,15-trimethylhexadecahydro-1H-cyclopenta[a]phenanthren-17-yl)ethan-1-one]",17.8
12,"C[C@@H]1C[C@H](C(=O)CN2C(=O)CSC2=O)[C@@]2(C)CC[C@H]3[C@@H](CC[C@@H]4C[C@](C)(O)CC[C@@H]43)[C@H]12 [Example 136, 3-(2-((3R,5R,8R,9R,10S,13S,14S,15R,17S)-3-Hydroxy-3,13,15-trimethylhexadecahydro-1H-cyclopenta[a]phenanthren-17-yl)-2-oxoethyl)thiazolidine-2,4-dione]",26.5
13,"CC[C@@H]1C[C@H](C(=O)Cn2nnc(C)n2)[C@@]2(C)CC[C@H]3[C@@H](CC[C@@H]4C[C@](C)(O)CC[C@@H]43)[C@H]12 [Example 139, 1-((3R,5R,8R,9R,10S,13S,14S,15R,17S)-15-Ethyl-3-hydroxy-3,13-dimethylhexadecahydro-1H-cyclopenta[a]phenanthren-17-yl)-2-(5-methyl-2H-tetrazol-2-yl)ethan-1-one]",27
14,"CC[C@@H]1C[C@H](C(=O)Cn2nc(C#N)cc2C#N)[C@@]2(C)CC[C@H]3[C@@H](CC[C@@H]4C[C@](C)(O)CC[C@@H]43)[C@H]12 [Example 142, 1-(2-((3R,5R,8R,9R,10S,13S,14S,15R,17S)-15-Ethyl-3-hydroxy-3,13-dimethylhexadecahydro-1H-cyclopenta[a]phenanthren-17-yl)-2-oxoethyl)-1H-pyrazole-3,5-dicarbonitrile]",16.2
15,"C[C@@]1(O)CC[C@H]2[C@H](CC[C@@H]3[C@@H]2CC[C@@]2(C)[C@H]3[C@H](C3CC3)C[C@@H]2C(=O)Cn2ccc(C(F)(F)F)n2)C1 [Example 144, 1-((3R,5R,8R,9R,10S,13S,14S,15S,17S)-15-Cyclopropyl-3-hydroxy-3,13-dimethylhexadecahydro-1H-cyclopenta[a]phenanthren-17-yl)-2-(3-(trifluoromethyl)-1H-pyrazol-1-yl)ethan-1-one]",18.6
16,"C[C@@]1(O)CC[C@H]2[C@H](CC[C@@H]3[C@@H]2CC[C@@]2(C)[C@H]3[C@H](C3CC3)C[C@@H]2C(=O)Cn2cc(C#N)c(Cl)n2)C1 [Example 147, 3-Chloro-1-(2-((3R,5R,8R,9R,10S,13S,14S,15S,17S)-15-cyclopropyl-3-hydroxy-3,13-dimethylhexadecahydro-1H-cyclopenta[a]phenanthren-17-yl)-2-oxoethyl)-1H-pyrazole-4-carbonitrile]",24.4
